The values below come from patent US20100168421A1, “A NEW PEPTIDE DEFORMYLASE INHIBITOR COMPOUND AND MANUFACTURING PROCESS THEREOF” (priority 2007, published 2010).

Converted amounts (≈) assume the structure as drawn. Like-named read-outs stand apart in the source and are kept apart here. Bounds are passed on as bounds.

In experiment [1] the target is T1, PDF enzyme (Streptococcus pneumoniae serotype 4, UniProt Q9F2F0).
T1 sequence (Q9F2F0 1-203): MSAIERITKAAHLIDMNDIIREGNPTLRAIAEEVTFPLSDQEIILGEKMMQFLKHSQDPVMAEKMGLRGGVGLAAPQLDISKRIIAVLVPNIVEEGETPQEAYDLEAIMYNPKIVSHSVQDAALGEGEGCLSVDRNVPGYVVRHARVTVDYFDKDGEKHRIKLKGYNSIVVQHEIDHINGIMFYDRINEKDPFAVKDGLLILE
Description: PDF/FDH coupled enzyme assay, Streptococcus Pneumoniae. The class given is biochemical. The conditions noted are these: substrate fMAS, absorption at 340 nm.

Experiment [2] addresses PDF enzyme (Streptococcus pyogenes serotype M1, UniProt P68771). Description: PDF/FDH coupled enzyme assay, Streptococcus pyogenes. It counts as biochemical.
Experiment [3] deals with PDF enzyme (Escherichia coli, UniProt P0A6K3). Description: PDF/FDH coupled enzyme assay, E. coli. It counts as biochemical. As for the experimental part: Activities of PDF enzyme for E. coli and S. aureus were determined using PDF/FDH coupled assay. In this coupled assay, the formate released by PDF from its substrate formyl-Methionine-Alanine-Serine (fMAS) is oxidized by coupling enzyme formate dehydrogenase (FDH), reducing one molecule of NAD^+ to NADH, which is measured absorption at 340 nm.

A further experiment deals with Streptococcus pyogenes. Description: MIC microdilution, S. pyogenes. The class given is cell-based. The conditions noted are these: read-out: MIC Streptococcus pyogenes. Here is the method:
(§1) Minimum inhibitory concentrations (MICs) were determined using the microdilution method in 96-well format plates. Each of the compounds of Examples was dissolved in dimethyl sulfoxide to a concentration of 2 mg/mL and stored at 4° C. until used. They were diluted in Mueller-Hinton Broth (MHB) and used for MIC determination. The range of concentrations tested was […] final concentration using a two-fold dilution system. Plates were incubated at 37° C. and MIC were recorded after 24 hours of incubation for bacteria.
(§2) Linezolid and vancomycin were used as standard antibiotics, respectively.
In general terms: In broth dilution the organism is exposed to a series of concentrations in liquid medium.

In experiment [4] the test system is Streptococcus Pneumoniae Pen S. Description: MIC microdilution, S. Pneumoniae Pen S. The class given is cell-based. Conditions: read-out: MIC Streptococcus Pneumoniae Pen S. Here is the method: as §1, §2
Experiment [5] relates to Streptococcus Pneumoniae Pen NS. Description: MIC microdilution, S. Pneumoniae Pen NS. The class given is cell-based. Conditions: read-out: MIC Streptococcus Pneumoniae Pen NS. Here is the method: as §1, §2
In experiment [6] the test system is Vancomycin-resistant Enterococcus faecium. Description: MIC microdilution, VR E. faecium. The class given is cell-based. Conditions: read-out: MIC Vancomycin-resistant Enterococcus faecium. As for the experimental part:
as §1, §2

Experiment [7] has as its system Vancomycin-resistant Enterococcus faecalis. Description: MIC microdilution, VR E. faecalis. It counts as cell-based. The conditions noted are these: read-out: MIC Vancomycin-resistant Enterococcus faecalis. Here is the method: as §1, §2
Setting [8] is: microdilution, Mueller-Hinton Broth, 37° C., 24 hours.

Chain of PDF enzyme (Escherichia coli, UniProt P0A6K3) (P0A6K3 whole entry): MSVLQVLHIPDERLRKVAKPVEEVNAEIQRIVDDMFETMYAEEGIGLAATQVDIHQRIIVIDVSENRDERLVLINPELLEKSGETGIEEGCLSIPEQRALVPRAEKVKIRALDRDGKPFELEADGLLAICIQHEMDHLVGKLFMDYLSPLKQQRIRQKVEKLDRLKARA
Chain of PDF enzyme (Streptococcus pyogenes serotype M1, UniProt P68771) (P68771 whole entry): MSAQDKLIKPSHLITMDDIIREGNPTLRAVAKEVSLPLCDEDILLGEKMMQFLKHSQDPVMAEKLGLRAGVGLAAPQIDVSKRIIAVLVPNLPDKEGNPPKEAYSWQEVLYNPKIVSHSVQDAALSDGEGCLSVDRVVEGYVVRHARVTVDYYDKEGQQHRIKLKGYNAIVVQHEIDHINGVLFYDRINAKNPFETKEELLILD

In general, IC50 refers to the concentration needed to halve the response being measured. Turning to `Cc1ccc(CNC2CCN(C(=O)[C@@H](NC(=O)[C@@H](CC(=O)NO)CC3CCCC3)C(C)(C)C)CC2)cc1` [Example 1, (R)-2-Cyclopentylmethyl-N^1-{(S)-2,2-dimethyl-1-[4-(4-methyl-benzylamino)-piperidine-1-carbonyl]-propyl}-N^4-hydroxy-succinamide], the concentration for half-maximal inhibition (IC50) on PDF enzyme [1] is 65 nM; on PDF enzyme [2] it was 70 nM; on PDF enzyme [3], 150 nM.

Turning to `CC(C)(C)[C@H](NC(=O)[C@H](CC1CCCC1)CN(O)C=O)C(=O)N1CCC(NCc2ccc(F)cc2F)CC1` [Example 10, (R)-2-Cyclopentylmethyl-N-{(S)-1-[4-(2,4-difluoro-benzylamino)-piperidine-1-carbonyl]-2,2-dimethyl-propyl}-3-(formyl-hydroxy-amino)-propionamide], the results for the IC50 at PDF enzyme [1], on PDF enzyme [2] and against PDF enzyme [3] were 55 nM, 83 nM and 122 nM, respectively.

`CC(C)(C)[C@H](NC(=O)[C@H](CC1CCCC1)CN(O)C=O)C(=O)N1CCC(NCc2ccc(O)c(O)c2)CC1` [Example 13, (R)-2-Cyclopentylmethyl-N-{(S)-1-[4-(3,4-dihydroxy-benzylamino)-piperidine-1-carbonyl]-2,2-dimethyl-propyl}-3-(formyl-hydroxy-amino)-propionamide]: the values for the 50% inhibitory concentration (IC50) against PDF enzyme [1], against PDF enzyme [2] and against PDF enzyme [3] were 46 nM, 88 nM and 133 nM, respectively.

By MIC is commonly meant the lowest concentration that inhibits growth of the organism. As for `CC(C)(C)[C@H](NC(=O)[C@H](CC1CCCC1)CN(O)C=O)C(=O)N1CCC(Nc2ccc(C#N)cc2)CC1` [Example 16, (R)-N-{(S)-1-[4-(4-Cyano-phenylamino)-piperidine-1-carbonyl]-2,2-dimethyl-propyl}-2-cyclopentylmethyl-3-(formyl-hydroxy-amino)-propionamide], the MIC in the experiment with Streptococcus pyogenes (setting [8]) is 0.1 µg/mL (≈ 0.195 µM); in experiment [4] (setting [8]), 0.1 µg/mL (≈ 0.195 µM); in experiment [5] (setting [8]), 1.6 µg/mL (≈ 3.13 µM); in experiment [6] (setting [8]), 0.4 µg/mL (≈ 0.782 µM); in experiment [7] (setting [8]), 3.1 µg/mL (≈ 6.06 µM).

Turning to `Cc1ccc(NC2CCN(C(=O)[C@@H](NC(=O)[C@H](CC3CCCC3)CN(O)C=O)C(C)(C)C)CC2)cc1` [Example 18, (R)-2-Cyclopentylmethyl-N-[(S)-2,2-dimethyl-1-(4-p-tolylamino-piperidine-1-carbonyl)-propyl]-3-(formyl-hydroxy-amino)-propionamide], the minimal inhibitory concentration (MIC) in the experiment on Streptococcus pyogenes (setting [8]) came to 0.1 µg/mL (≈ 0.2 µM); in experiment [4] (setting [8]), 0.2 µg/mL (≈ 0.399 µM); in experiment [5] (setting [8]), 0.4 µg/mL (≈ 0.799 µM); in experiment [6] (setting [8]) it was 0.4 µg/mL (≈ 0.799 µM); in experiment [7] (setting [8]), 3.1 µg/mL (≈ 6.19 µM).

Consider `COc1ccc(NC2CCN(C(=O)[C@@H](NC(=O)[C@H](CC3CCCC3)CN(O)C=O)C(C)(C)C)CC2)cc1` [Example 19, (R)-2-Cyclopentylmethyl-3-(formyl-hydroxy-amino)-N-{(S)-1-[4-(4-methoxy-phenylamino)-piperidine-1-carbonyl]-2,2-dimethyl-propyl}-propionamide], for which the MIC with Streptococcus pyogenes (setting [8]) was 0.2 µg/mL (≈ 0.387 µM); in experiment [4] (setting [8]) it was 0.4 µg/mL (≈ 0.774 µM); in experiment [5] (setting [8]) it was 0.2 µg/mL (≈ 0.387 µM); in experiment [6] (setting [8]) it was 1.6 µg/mL (≈ 3.1 µM); in experiment [7] (setting [8]), 3.1 µg/mL (≈ 6 µM).

Consider `COC(=O)c1ccc(NC2CCN(C(=O)[C@@H](NC(=O)[C@H](CC3CCCC3)CN(O)C=O)C(C)(C)C)CC2)cc1` [Example 21, 4-(1-[(S)-2-[(R)-2-Cyclopentylmethyl-3-(formyl-hydroxy-amino)-propionylamino]-3,3-dimethyl-butyryl]-piperidin-4-ylamino)-benzoic acid methyl ester], for which the MIC with Streptococcus pyogenes (setting [8]) worked out at 0.4 µg/mL (≈ 0.734 µM); in experiment [4] (setting [8]), 0.2 µg/mL (≈ 0.367 µM); in experiment [5] (setting [8]), 0.8 µg/mL (≈ 1.47 µM); in experiment [6] (setting [8]) it was 1.6 µg/mL (≈ 2.94 µM); in experiment [7] (setting [8]) it was 6.3 µg/mL (≈ 11.6 µM).

Consider `CC(C)(C)[C@H](NC(=O)[C@H](CC1CCCC1)CN(O)C=O)C(=O)N1CCC(Nc2ccc(F)cc2F)CC1` [Example 23, (R)-2-Cyclopentylmethyl-N-{(S)-1-[4-(2,4-difluoro-phenylamino)-piperidine-1-carbonyl]-2,2-dimethyl-propyl}-3-(formyl-hydroxy-amino)-propionamide], for which the MIC was determined as 0.1 µg/mL (≈ 0.191 µM) in the experiment with Streptococcus pyogenes (24 h); 0.05 µg/mL (≈ 0.0957 µM) in experiment [4] (24 h); 0.2 µg/mL (≈ 0.383 µM) in experiment [5] (24 h); 0.2 µg/mL (≈ 0.383 µM) in experiment [6] (24 h); 3.1 µg/mL (≈ 5.93 µM) in experiment [7] (24 h).

With `COc1ccc(NC2CCN(C(=O)[C@@H](NC(=O)[C@H](CC3CCCC3)CN(O)C=O)C(C)(C)C)CC2)c(OC)c1` [Example 24, (R)-2-Cyclopentylmethyl-N-{(S)-1-[4-(2,4-dimethoxy-phenylamino)-piperidine-1-carbonyl]-2,2-dimethyl-propyl}-3-(formyl-hydroxy-amino)-propionamide], the MIC in the experiment on Streptococcus pyogenes (setting [8]) stood at 0.1 µg/mL (≈ 0.183 µM); in experiment [4] (setting [8]) it was 0.2 µg/mL (≈ 0.366 µM); in experiment [5] (setting [8]) it was 0.4 µg/mL (≈ 0.732 µM); in experiment [6] (setting [8]) it was 0.8 µg/mL (≈ 1.46 µM); in experiment [7] (setting [8]), 6.3 µg/mL (≈ 11.5 µM).

Regarding `CC(C)(C)[C@H](NC(=O)[C@H](CC1CCCC1)CN(O)C=O)C(=O)N1CCC(Nc2ccc(N3CCOCC3)c(F)c2)CC1` [Example 25, (R)-2-Cyclopentylmethyl-N-{(S)-1-[4-(3-fluoro-4-morpholin-4-yl-phenylamino)-piperidine-1-carbonyl]-2,2-dimethyl-propyl}-3-(formyl-hydroxy-amino)-propionamide], the MIC came out at 0.8 µg/mL (≈ 1.36 µM) in the experiment with Streptococcus pyogenes (setting [8]); 0.4 µg/mL (≈ 0.678 µM) in experiment [4] (setting [8]); 1.6 µg/mL (≈ 2.71 µM) in experiment [5] (setting [8]); 3.1 µg/mL (≈ 5.26 µM) in experiment [6] (setting [8]); 12.5 µg/mL (≈ 21.2 µM) in experiment [7] (setting [8]).

Regarding `CC(C)(C)[C@H](NC(=O)[C@H](CC1CCCC1)CN(O)C=O)C(=O)N1CCC(NCc2ccco2)CC1` [Example 27, (R)-2-Cyclopentylmethyl-3-(formyl-hydroxy-amino)-N-((S)-1-{4-[(furan-2-ylmethyl)-amino]-piperidine-1-carbonyl}-2,2-dimethyl-propyl)-propionamide], the IC50 against PDF enzyme [1] was determined as 42 nM; on PDF enzyme [2], 63 nM; on PDF enzyme [3], 117 nM.

Take `COc1coc(CNC2CCN(C(=O)[C@@H](NC(=O)[C@H](CC3CCCC3)CN(O)C=O)C(C)(C)C)CC2)cc1=O` [Example 29, (R)-2-Cyclopentylmethyl-3-(formyl-hydroxy-amino)-N-((S)-1-{4-[(5-methoxy-4-oxo-4H-pyran-2-ylmethyl)-amino]-piperidine-1-carbonyl}-2,2-dimethyl-propyl)-propionamide]: the IC50 against PDF enzyme [1] is 43 nM; on PDF enzyme [2] it was 54 nM; against PDF enzyme [3] it was 155 nM.

`CC(C)(C)[C@H](NC(=O)[C@H](CC1CCCC1)CN(O)C=O)C(=O)N1CCC(NCc2cc(=O)c(O)co2)CC1` [Example 30, (R)-2-Cyclopentylmethyl-3-(formyl-hydroxy-amino)-N-((S)-1-{4-[(5-hydroxy-4-oxo-4H-pyran-2-ylmethyl)-amino]-piperidin-1-carbonyl}-2,2-dimethyl-propyl)-propionamide]: the figures for the IC50 against PDF enzyme [1], at PDF enzyme [2] and against PDF enzyme [3] were 50 nM, 62 nM and 160 nM, respectively.

With `CC(=O)NC[C@H]1CN(c2ccc(N3CCOCC3)c(F)c2)C(=O)O1` [Linezolid, reference compound], the minimal inhibitory concentration (MIC) was 0.8 µg/mL (≈ 2.37 µM) in the experiment with Streptococcus pyogenes (setting [8]); 0.8 µg/mL (≈ 2.37 µM) in experiment [4] (setting [8]); 0.8 µg/mL (≈ 2.37 µM) in experiment [5] (setting [8]); 1.6 µg/mL (≈ 4.74 µM) in experiment [6] (setting [8]); 0.8 µg/mL (≈ 2.37 µM) in experiment [7] (setting [8]).

Regarding `CN[C@H](CC(C)C)C(=O)N[C@H]1C(=O)N[C@@H](CC(N)=O)C(=O)N[C@H]2C(=O)N[C@H]3C(=O)N[C@H](C(=O)N[C@H](C(=O)O)c4cc(O)cc(O)c4-c4cc3ccc4O)[C@H](O)c3ccc(c(Cl)c3)Oc3cc2cc(c3O[C@@H]2O[C@H](CO)[C@@H](O)[C@H](O)[C@H]2O[C@H]2C[C@](C)(N)[C@H](O)[C@H](C)O2)Oc2ccc(cc2Cl)[C@H]1O` [Vancomycin, reference compound], the MIC with Streptococcus pyogenes (24 h) is 0.4 µg/mL (≈ 0.276 µM); in experiment [4] (24 h) it was 0.2 µg/mL (≈ 0.138 µM); in experiment [5] (24 h) it was 0.4 µg/mL (≈ 0.276 µM); in experiment [6] (24 h) it was more than 50 µg/mL; in experiment [7] (24 h), more than 50 µg/mL.
